In ChEMBL document CHEMBL4431372, “Optimization of a Fragment-Based Screening Hit toward Potent DOT1L Inhibitors Interacting in an Induced Binding Pocket” (ACS Med Chem Lett, 2016) one finds IC50 and Kd data, which are given here for ten compounds.

Broadly, the IC50 is the point on the concentration scale where inhibition reaches its midpoint. Low readings indicate greater potency, high ones weaker potency. By Kd is commonly meant the constant that tells how readily two partners part at equilibrium.

Assay [1] deals with T1, Histone-lysine N-methyltransferase, H3 lysine-79 specific (Homo sapiens, UniProt Q8TEK3). In words: Inhibition of human DOTL1 (2 to 416 residues)-mediated methylation of nucleosome preincubated for 30 mins followed by addition of S-[methyl-3H-] adenosyl-L-methionine and nucleosome measured after 180 mins by scintillation proximity assay. On the technique in general: In a scintillation proximity assay essentially only radioactivity close to the scintillant gives light.

Assay [2] has as its target T1, Histone-lysine N-methyltransferase, H3 lysine-79 specific. As to the kind of experiment: Binding affinity to biotinylated Avi tagged human DoT1L (2 to 416 residues) by SPR analysis.

T1 sequence (Q8TEK3 whole entry, the tested form may be a part): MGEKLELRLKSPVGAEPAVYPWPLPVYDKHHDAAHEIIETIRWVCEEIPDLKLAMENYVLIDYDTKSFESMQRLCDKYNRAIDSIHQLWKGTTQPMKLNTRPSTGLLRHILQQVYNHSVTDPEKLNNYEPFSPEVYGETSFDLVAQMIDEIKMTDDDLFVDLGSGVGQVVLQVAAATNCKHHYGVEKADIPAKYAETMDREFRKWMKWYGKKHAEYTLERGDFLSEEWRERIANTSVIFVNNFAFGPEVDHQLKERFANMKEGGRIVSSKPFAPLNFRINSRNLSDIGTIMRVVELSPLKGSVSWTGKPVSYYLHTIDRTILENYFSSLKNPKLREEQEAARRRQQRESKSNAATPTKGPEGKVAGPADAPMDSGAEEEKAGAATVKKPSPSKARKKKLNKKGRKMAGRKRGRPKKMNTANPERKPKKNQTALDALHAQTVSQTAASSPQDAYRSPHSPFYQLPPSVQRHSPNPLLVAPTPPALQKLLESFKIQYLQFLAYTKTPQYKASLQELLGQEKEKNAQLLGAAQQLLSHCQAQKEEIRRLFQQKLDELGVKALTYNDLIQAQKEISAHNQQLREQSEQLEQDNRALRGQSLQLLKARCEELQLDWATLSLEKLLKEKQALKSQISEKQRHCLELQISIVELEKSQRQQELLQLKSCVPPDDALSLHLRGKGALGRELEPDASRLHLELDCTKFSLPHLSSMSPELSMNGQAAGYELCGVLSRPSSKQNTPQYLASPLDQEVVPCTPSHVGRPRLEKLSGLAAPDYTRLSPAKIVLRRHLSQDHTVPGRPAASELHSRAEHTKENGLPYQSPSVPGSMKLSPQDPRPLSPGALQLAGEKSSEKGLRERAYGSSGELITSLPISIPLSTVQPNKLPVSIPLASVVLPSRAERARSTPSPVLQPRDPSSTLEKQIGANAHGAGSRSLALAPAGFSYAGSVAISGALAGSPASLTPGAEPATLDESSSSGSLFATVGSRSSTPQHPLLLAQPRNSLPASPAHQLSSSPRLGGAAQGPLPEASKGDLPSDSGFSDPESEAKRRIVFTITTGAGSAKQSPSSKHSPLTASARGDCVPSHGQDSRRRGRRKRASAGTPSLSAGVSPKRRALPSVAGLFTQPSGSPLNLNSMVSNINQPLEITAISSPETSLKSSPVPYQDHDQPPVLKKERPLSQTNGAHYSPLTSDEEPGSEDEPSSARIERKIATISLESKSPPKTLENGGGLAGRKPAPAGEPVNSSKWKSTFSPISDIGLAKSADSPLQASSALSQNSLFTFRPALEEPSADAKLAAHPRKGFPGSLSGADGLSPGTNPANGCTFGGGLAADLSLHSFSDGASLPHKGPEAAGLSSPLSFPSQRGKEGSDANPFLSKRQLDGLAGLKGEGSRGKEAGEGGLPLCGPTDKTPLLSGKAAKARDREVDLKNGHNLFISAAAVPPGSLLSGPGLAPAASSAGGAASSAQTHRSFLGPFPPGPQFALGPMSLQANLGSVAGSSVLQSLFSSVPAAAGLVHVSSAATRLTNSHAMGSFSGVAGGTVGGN

`C#CCN(c1ccc2ncnc(N)c2c1)c1c(Cl)cccc1Cl` registered an IC50 in assay [1] of 0.92 µM.

Turning to `COc1ccnc2ccc(N(C)c3c(Cl)cccc3Cl)cc12`, the IC50 in assay [1] is 39 µM.

Regarding `Cn1cnc2ccc(N(CC#Cc3cccnc3)c3c(Cl)cccc3Cl)cc2c1=O`, in assay [1], it took 0.84 µM to reach half-maximal inhibition (IC50).

In turn, `CN(c1ccc2ncccc2c1)c1c(Cl)cccc1Cl` returned a 50% inhibitory concentration (IC50) in assay [1] of 98 µM.

With `CC(=O)Nc1cncc(-c2cc(C(=O)c3c(Cl)cccc3Cl)c[nH]2)c1`, the IC50 in assay [1] came to 4.3 µM.

`O=C(c1ccc2ncccc2c1)c1c(Cl)cccc1Cl` gave a 50% inhibitory concentration (IC50) in assay [1] of 139 µM.

In turn, `Nc1ncnc2ccc(N(CC#CC(O)c3nccn3CCO)c3c(Cl)cccc3Cl)cc12` (stereo unspecified) registered an IC50 in assay [1] of 0.014 µM.

Consider `Cc1ccc(C#CCN(c2ccc3ncnc(N)c3c2)c2c(Cl)cccc2Cl)nc1`, for which 0.047 µM corresponded to half-maximal inhibition in assay [1] (IC50).

`Cc1ncc(C#CCN(c2ccc3ncn(C)c(=O)c3c2)c2c(Cl)cccc2Cl)cn1` came in with an IC50 in assay [1] of 0.089 µM.

In assay [2], `CNC(=O)c1cc(C(=O)c2c(Cl)cccc2Cl)c[nH]1` came in with an equilibrium dissociation constant (Kd) of 50 µM. In assay [1], the IC50 is 320 µM.
